Results: PubChem BioAssay AID652199 (Broad Institute, 2013)
Calls of active or inactive are those of the source.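 The calls were made as follows: active = half-maximal inhibitory concentration AC50 at or below 30 µM; inactive = the rest, including compounds with no fitted curve.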

molecular target: Protein disulfide-isomerase (Homo sapiens) (UniProt P07237); assay: inhibition of PDI-catalysed insulin clumping – biochemical, turbidity, dry powder samples, set 3, confirmation (AID 652199); details: absorbance 650 nm, 90 min
Sequence (P07237 whole entry, looked up): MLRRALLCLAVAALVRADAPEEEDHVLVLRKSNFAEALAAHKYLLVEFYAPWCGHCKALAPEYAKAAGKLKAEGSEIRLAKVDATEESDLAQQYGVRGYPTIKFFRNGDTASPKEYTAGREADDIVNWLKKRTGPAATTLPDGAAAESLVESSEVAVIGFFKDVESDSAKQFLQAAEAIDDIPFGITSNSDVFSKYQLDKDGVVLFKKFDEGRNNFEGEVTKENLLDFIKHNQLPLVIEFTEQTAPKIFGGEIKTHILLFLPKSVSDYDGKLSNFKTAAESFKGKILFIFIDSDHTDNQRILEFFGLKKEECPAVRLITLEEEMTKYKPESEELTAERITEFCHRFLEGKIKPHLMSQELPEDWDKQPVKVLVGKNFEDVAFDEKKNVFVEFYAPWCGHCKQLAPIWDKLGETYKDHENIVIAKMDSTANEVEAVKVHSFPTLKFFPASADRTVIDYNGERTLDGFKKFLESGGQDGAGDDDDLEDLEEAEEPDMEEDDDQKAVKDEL

| AC50 | SMILES |
| --- | --- |
| 3 µM | CCOC(=O)c1c(CN2CCN(CCO)CC2)n(-c2ccccc2)c2cc(Br)c(O)cc12 |
| > 30 µM (inactive) | CCOC(=O)C1(CCOc2ccccc2)CCN(Cc2ccc(OC)c(Cl)c2)CC1 |
| 1.5 µM | CCOC(=O)C1(CCOc2ccccc2)CCN(C(=O)c2ccc(O)c(Cl)c2)CC1 |
| 3 µM | O=C(NC1CCCC1)C1(CCOc2ccccc2)CCN(Cc2ccc(O)c(Cl)c2)CC1 |
| 0.7 µM | CC(C)(C)OC(=O)C1(CCOc2ccccc2)CCN(Cc2ccc(O)c(Cl)c2)CC1 |
| 0.4 µM | CCOC(=O)C1(CCOc2ccccc2)CCN(Cc2ccc(O)c(Cl)c2)CC1 |
| 3 µM | CCN(C)C(=O)C1(CCOc2ccccc2)CCN(Cc2ccc(O)c(Cl)c2)CC1 |
| 5 µM | C/C1=C\C[C@H](OC(=O)c2ccc(O)cc2)/C(C)=C/[C@@H](O)C(C)(C)CCC1 |
| 20 µM | CCOC(=O)C1(CCOc2ccccc2)CCN(Cc2ccc(O)cc2)CC1 |
| 0.7 µM | CC(C)OC(=O)C1(CCOc2ccccc2)CCN(Cc2ccc(O)c(Cl)c2)CC1 |
| 30 µM | O=C(Nc1ccccc1)C1(CCOc2ccccc2)CCN(Cc2ccc(O)c(Cl)c2)CC1 |
| 1.5 µM | C/C1=C\[C@@H](O)C(C)(C)CCCC2(C)OC2C[C@@H]1OC(=O)c1ccc(O)cc1 (some centres not stated) |
